Test [1] concerns SKBr3 (estrogen receptor negative, HER2 over-expressing breast cancer cells). Put plainly: Anti-proliferation assay (MTS/PMS, 72 h), SKBr3. Type of test: cell-based. As to conditions: Homo sapiens. As for the experimental part:
(§1) Cells were maintained in a 1:1 mixture of Advanced DMEM/F12 (Gibco) supplemented with non-essential amino acids, L-glutamine (2 mM), streptomycin (500 μg/mL), penicillin (100 units/mL), and 10% FBS. Cells were grown to confluence in a humidified atmosphere (37° C., 5% CO2), seeded (2000/well, 100 μL) in 96-well plates, and allowed to attach overnight. Compound at varying concentrations in DMSO (1% DMSO final concentration) was added, and cells were returned to the incubator for 72 h. At 72 h, the number of viable cells was determined using an MTS/PMS cell proliferation kit (Promega) per the manufacturer's instructions. Cells incubated in 1% DMSO were used at 100% proliferation, and values were adjusted accordingly. IC50 values were calculated from separate experiments performed in triplicate using GraphPad Prism.
(§2) Anti-proliferative studies with the compounds described herein were performed against the SKBr3 (estrogen receptor negative, HER2 over-expressing breast cancer cells) and MCF-7 (estrogen receptor positive breast cancer cells) breast cancer cell lines. […] In some embodiments, in contrast to the novobiocin derivatives, which usually manifest better anti-proliferative activities against the SKBr3 cell line, the biphenyl derivatives described herein were more efficacious against the MCF-7 cell line. In general, all substitutions on the phenyl ring were determined to be beneficial, consistent with the existence of a hydrophobic pocket in this region of the Hsp90 C-terminal binding site.

The subject of test [2] is MCF-7 (estrogen receptor positive breast cancer cells). Put plainly: Anti-proliferation assay (MTS/PMS, 72 h), MCF-7. As to conditions: Homo sapiens. Type of test: cell-based. As to the method:
as §1, §2

[3] abbreviates: SK-BR-3, Table 2, para-meta biphenyl core with substituted benzylamide.
[4] abbreviates: MCF7, Table 2, para-meta biphenyl core with substituted benzylamide.
Where [5] appears, read: SK-BR-3, Table 1, ortho, meta and para biphenyl cores.
Where [6] appears, read: SK-BR-3, Table 6, para-para biphenyl core with substituted benzylamide.
Where [7] appears, read: MCF7, Table 1, ortho, meta and para biphenyl cores.
Setting [8] is: MCF7, Table 6, para-para biphenyl core with substituted benzylamide.
The mark [9] stands for this setting: SK-BR-3, Table 8, para-para biphenyl core with substituted biphenylamide group.
The mark [10] stands for this setting: MCF7, Table 8, para-para biphenyl core with substituted biphenylamide group.
Where [11] appears, read: SK-BR-3, Table 11, heteroatom linked biphenyl core.
[12] abbreviates: MCF7, Table 11, heteroatom linked biphenyl core.
The mark [13] stands for this setting: SK-BR-3, Table 3, substituted para-para biphenyl core.
Where [14] appears, read: MCF7, Table 3, substituted para-para biphenyl core.

This passage reports IC50 results from US10689344B2, “Biphenylamide derivative Hsp90 inhibitors” (University of Kansas, priority 2013, dated 2020).

By IC50 is commonly meant the point on the concentration scale where inhibition reaches its midpoint.

Turning to `CN1CCC(Oc2ccc(-c3cccc(NC(=O)c4cccc5ccccc45)c3)cc2)CC1` [Compound 6p, N-(4′-((1-methylpiperidin-4-yl)oxy)-[1,1′-biphenyl]-3-yl)-1-naphthamide], the concentration for half-maximal inhibition (IC50) amounted to 1640 ± 130 nM in test [1] (setting [3]) and 1100 ± 170 nM in test [2] (setting [4]).

`COc1ccc(C(=O)Nc2ccc(-c3ccc(OC4CCN(C)CC4)cc3)cc2)cc1` [Compound 41f, 4-methoxy-N-(4′-((1-methylpiperidin-4-yl)oxy)-[1,1′-biphenyl]-4-yl)benzamide]: the IC50 in test [1] (setting [5]) is 490 ± 10 nM; in test [1] (setting [6]) it was 490 ± 10 nM; in test [2] (setting [7]), 650 ± 40 nM; in test [2] (setting [8]) it was 650 ± 40 nM.

For `COc1cccc(-c2cc(C(=O)Nc3ccc(-c4ccc(OC5CCN(C)CC5)c(CCC(C)C)c4)cc3)ccc2OC)c1`, the IC50 in test [1] (SK-BR-3, Table 10, longer alkyl chain substituted biphenyl core) turned out to be 1180 ± 40 nM; in test [2] (MCF7, Table 10, longer alkyl chain substituted biphenyl core) it was 1430 ± 220 nM.

As for `COc1cccc(C(=O)Nc2cccc(-c3ccc(OC4CCN(C)CC4)cc3)c2)c1` [Compound 6g, 3-methoxy-N-(4′-((1-methylpiperidin-4-yl)oxy)-[1,1′-biphenyl]-3-yl)benzamide], the IC50 in test [1] (setting [3]) was 8360 ± 1350 nM; in test [2] (setting [4]), 4500 ± 460 nM.

Take `COc1ccc(C(=O)Nc2ccc(-c3ccc(OC4CCN(C)CC4)cc3)cc2)cc1-c1ccc(Cl)cc1` [Compound 49g, 4′-chloro-6-methoxy-N-(4′-((1-methylpiperidin-4-yl)oxy)-[1,1′-biphenyl]-4-yl)-[1,1′-biphenyl]-3-carboxamide]: the half-inhibitory concentration (IC50) in test [1] (setting [9]) was 1060 ± 50 nM; in test [2] (setting [10]), 820 ± 130 nM.

For `COc1ccc(C(=O)Nc2ccc(-c3ccc(OC4CCN(C)CC4)cc3)cc2)cc1-c1cccc(N)c1` [Compound 50c, 3′-amino-6-methoxy-N-(4′-((1-methylpiperidin-4-yl)oxy)-[1,1′-biphenyl]-4-yl)-[1,1′-biphenyl]-3-carboxamide], the IC50 in test [1] (setting [9]) stood at 1520 ± 550 nM; in test [2] (setting [10]), 1670 ± 680 nM.

In the case of `CN1CCC(Oc2ccc(Nc3ccc(NC(=O)c4ccc(Cl)cc4)cc3)cc2)CC1`, the IC50 in test [1] (setting [11]) amounted to 6440 ± 2610 nM; in test [2] (setting [12]), 7100 nM.

For `CC(=O)Oc1ccc(C(=O)Nc2cccc(-c3ccc(OC4CCN(C)CC4)cc3)c2)cc1CC=C(C)C` [Compound 61e, 2-(3-methylbut-2-en-1-yl)-4-((4′-((1-methylpiperidin-4-yl)oxy)-[1,1′-biphenyl]-3-yl)carbamoyl)phenyl acetate], the 50% inhibitory concentration (IC50) in test [1] (setting [5]) stood at 3470 nM; in test [2] (setting [7]) it was 2710 ± 400 nM.

On to `COc1ccc(C(=O)Nc2ccc(-c3ccc(OC4CCN(C)CC4)cc3)cc2)cc1-c1cccc(OC(C)=O)c1` [Compound 49d, 2′-methoxy-5′-((4′-((1-methylpiperidin-4-yl)oxy)-[1,1′-biphenyl]-4-yl)carbamoyl)-[1,1′-biphenyl]-3-yl acetate], for which the IC50 came to 270 ± 50 nM in test [1] (setting [9]) and 620 ± 70 nM in test [2] (setting [10]).

`COc1ccc(C(=O)Nc2ccc(-c3ccc(OC4CCN(C)CC4)cc3)cc2)cc1-c1ccc(OC(C)=O)cc1` [Compound 49e, 2′-methoxy-5′-((4′-((1-methylpiperidin-4-yl)oxy)-[1,1′-biphenyl]-4-yl)carbamoyl)-[1,1′-biphenyl]-4-yl acetate]: the concentration for half-maximal inhibition (IC50) in test [1] (setting [9]) came to 140 ± 10 nM; in test [2] (setting [10]), 640 ± 80 nM.

Regarding `CN1CCC(Oc2ccc(-c3ccc(NC(=O)c4ccc(Cl)cc4Cl)cc3)cc2)CC1` [Compound 41p, 2,4-dichloro-N-(4′-((1-methylpiperidin-4-yl)oxy)-[1,1′-biphenyl]-4-yl)benzamide], the IC50 in test [1] (setting [6]) came to 800 ± 220 nM; in test [2] (setting [8]), 1370 ± 330 nM.

Regarding `COc1ccc(C(=O)Nc2cccc(-c3cccc(OC4CCN(C)CC4)c3)c2)cc1` [Compound 61h, 4-methoxy-N-(3′-((1-methylpiperidin-4-yl)oxy)-[1,1′-biphenyl]-3-yl)benzamide], the figures for the IC50 in test [1] (setting [5]) and in test [2] (setting [7]) were 13200 ± 1970 nM and 8200 nM, respectively.

As for `CN1CCC(Oc2ccc(Nc3ccc(NC(=O)c4ccc5ccccc5c4)cc3)cc2)CC1`, the concentration for half-maximal inhibition (IC50) in test [1] (setting [11]) was found to be 4600 ± 250 nM; in test [2] (setting [12]), 2150 ± 10 nM.

Turning to `COc1cccc(-c2cc(C(=O)Nc3ccc(-c4ccc(OC5CCN(C)CC5)cc4)c(N)c3)ccc2OC)c1` [Compound 38c, N-(2-amino-4′-((1-methylpiperidin-4-yl)oxy)-[1,1′-biphenyl]-4-yl)-3′,6-dimethoxy-[1,1′-biphenyl]-3-carboxamide], the results for the IC50 in test [1] (setting [13]) and in test [2] (setting [14]) were 3900 ± 180 nM and 2070 ± 230 nM, respectively.

Turning to `CN1CCC(Oc2ccc(Nc3ccc(NC(=O)c4ccc(C(C)(C)C)cc4)cc3)cc2)CC1`, the IC50 in test [1] (setting [11]) was 2170 ± 30 nM; in test [2] (setting [12]), 3370 ± 1630 nM.

Turning to `COc1ccc(C(=O)Nc2ccc(-c3ccc(OC4CCN(C)CC4)cc3)cc2)cc1-c1ccccc1` [Compound 49a, 6-methoxy-N-(4′-((1-methylpiperidin-4-yl)oxy)-[1,1′-biphenyl]-4-yl)-[1,1′-biphenyl]-3-carboxamide], the values for the half-maximal inhibitory concentration (IC50) in test [1] (setting [9]) and in test [2] (setting [10]) were 510 ± 110 nM and 840 ± 10 nM, respectively.

With `COc1cccc(-c2cc(C(=O)Nc3ccc(-c4ccc(OC5CCN(C)CC5)cc4)c([N+](=O)[O-])c3)ccc2OC)c1` [Compound 34c, 3′,6-dimethoxy-N-(4′-((1-methylpiperidin-4-yl)oxy)-2-nitro-[1,1′-biphenyl]-4-yl)-[1,1′-biphenyl]-3-carboxamide], the IC50 was found to be 2480 ± 770 nM in test [1] (setting [13]) and 3320 ± 250 nM in test [2] (setting [14]).

As to `COc1cccc(-c2cc(C(=O)Nc3ccc(-c4ccc(OC5CCN(C)CC5)c(Cl)c4)cc3)ccc2OC)c1` [Compound 29i, N-(3′-chloro-4′-((1-methylpiperidin-4-yl)oxy)-[1,1′-biphenyl]-4-yl)-3′,6-dimethoxy-[1,1′-biphenyl]-3-carboxamide], the 50% inhibitory concentration (IC50) was 1840 ± 570 nM in test [1] (setting [13]) and 1480 ± 120 nM in test [2] (setting [14]).

Turning to `COc1cccc(-c2cc(C(=O)Nc3ccc(-c4ccc(OC5CCN(C)CC5)cc4)c(C)c3)ccc2OC)c1` [Compound 29c, 3′,6-dimethoxy-N-(2-methyl-4′-((1-methylpiperidin-4-yl)oxy)-[1,1′-biphenyl]-4-yl)-[1,1′-biphenyl]-3-carboxamide], the half-maximal inhibitory concentration (IC50) in test [1] (setting [13]) turned out to be 970 ± 10 nM; in test [2] (setting [14]) it was 1570 ± 560 nM.

`COc1cccc(-c2cc(C(=O)Nc3ccc(-c4ccc(OC5CCN(C)CC5)cc4NC(C)=O)cc3)ccc2OC)c1` [Compound 39b, N-(2′-acetamido-4′-((1-methylpiperidin-4-yl)oxy)-[1,1′-biphenyl]-4-yl)-3′,6-dimethoxy-[1,1′-biphenyl]-3-carboxamide]: the 50% inhibitory concentration (IC50) in test [1] (setting [13]) came out at 3390 ± 660 nM; in test [2] (setting [14]), 1360 ± 230 nM.

With `CN1CCC(Oc2cccc(-c3cccc(NC(=O)c4ccc(Cl)cc4)c3)c2)CC1` [Compound 61g, 4-chloro-N-(3′-((1-methylpiperidin-4-yl)oxy)-[1,1′-biphenyl]-3-yl)benzamide], the 50% inhibitory concentration (IC50) in test [1] (setting [5]) was found to be 4150 ± 960 nM; in test [2] (setting [7]), 4890 ± 80 nM.

With `COc1cccc(-c2cc(C(=O)Nc3ccc(-c4ccc(OC5CCN(C)CC5)nc4)cc3)ccc2OC)c1` [Compound 19a, 3′,6-dimethoxy-N-(4-(6-((1-methylpiperidin-4-yl)oxy)pyridin-3-yl)phenyl)-[1,1′-biphenyl]-3-carboxamide], the concentration for half-maximal inhibition (IC50) in test [1] (SK-BR-3, Table 4, para-para heteroatom substituted biphenyl core) is 1670 ± 90 nM; in test [2] (MCF7, Table 4, para-para heteroatom substituted biphenyl core) it was 1560 ± 190 nM.

Take `COc1cccc(-c2cc(C(=O)Nc3ccc(-c4ccc(OCCC5CCCN5C)cc4)cc3)ccc2OC)c1` (centres unmarked) [Compound 56d, 3′,6-dimethoxy-N-(4′-(2-(1-methylpyrrolidin-2-yl)ethoxy)-[1,1′-biphenyl]-4-yl)-[1,1′-biphenyl]-3-carboxamide]: inhibition in test [1] (SK-BR-3, Table 7, para-para biphenyl core with modified ether groups) was half-maximal at 1750 ± 240 nM (IC50).
